Measured values taken from patent US5955421A, “Peptides containing D-2-alkyl-Tryptophan” (priority 1990, dated 1999).
Square brackets hold non-standard residues; d marks the D form. Peptide text beside a SMILES is read from it.

Experiments:
[1] = Stability of D-Trp and D-2-methyl-Trp in 1% solutions (HPLC peak area); format: physicochemical; conditions: pH 2.2 citrate buffer, dark, helium (FIG. 1), pH 5.4 acetate buffer, oxygen, constant light (FIG. 2)
GH release [2] = test: Released GH in ten day-rats, s.c. (Table 9); format: in vivo; conditions: 15 minutes
Description: In vivo activity of these compounds was determined in ten day-rats, which were subcutaneously injected (s.c.) with a dose of 300 μg/kg or with different doses in dose-response studies, according to the procedure as described in Deghenghi et. al, Life Sciences 54, 1321 (1994). The released GH was measured 15 minutes following compound administration.

adenylcyclase = test: Adenylcyclase activity in anterior pituitary gland cells; format: cell-based; conditions: anterior pituitary gland cells from rats weighing 150 g
[3] = test system: pituitary cell monolayers; test: GH secretion of pituitary cell monolayers incubated with peptides; format: cell-based, rats; conditions: 2 hours incubation
Description: (§1) Male Sprague Dawley rats (Charles River, Calco, Italy) of 2-3 months of age were used. Rats were housed at 22 +2° C., with lighting cycle of 14 h light: 10 h dark (lights on from 06.00 to 20.00 h), at least 10 days before starting the experiments. A standard dry diet and water were available ad libitum.
Pituitary tissue used for cell dissociation included only the anterior lobe. Briefly, pituitary glands were collected in sterile F-10 medium and after cutting into small fragments incubated twice (30 minutes each) at 37° C. in F-10 medium containing 6% fetal calf serum and collagenase (2.5 mg/ml) (Boehringer, Mannheim GmbH, Germany). Fragments were then washed in Dulbecco's PBS, Ca^2 + and Mg^2 + free medium and mechanically dissociated. Single cell suspension was planted onto 24-well (2×10^5 cells/well) culture plates. The cells were incubated in F-10 medium supplemented with 10% horse serum, 4% fetal calf serum and gentamycin (25 μg/ml), in a humidified atmosphere of 5% CO2 and 95% air at 37° C.
After 3 days, the medium was removed and the cells washed twice with serum free F-10, then incubated with 1 ml of F-10 containing 0.1% BSA only, or with added various concentrations of synthetic peptides.
After incubation for 2 h at 37° C., media were collected and stored frozen at -20° C. until assayed for measurement of GH content.
(§2) Medium and plasma GH was measured by radioimmunoassay using materials supplied by the NIADDK Bethesda, Md. Values were expressed in term of NIASSK-rat-GH-RP-2 standard (potency 2 IU/ml), as ng/ml of medium or plasma.
(§3) The minimum detectable value of rat was 1.0 ng/ml; intra-assay variability was 6%. To avoid inter-assay variation, samples from each experiment were assayed simultaneously.

GH release [4] = test: Plasma GH after i.v. administration in male rats anesthetized with ketamine and xilazine; format: in vivo; conditions: 0 min (before injection)
Description: as §1
(§4) Between 09.00-10.00 h rats were anesthetized with ketamine (58 mg/kg, Inoketam, VIRBAC, Milano) and xilazine (12 mg/kg, Rompun, Bayer, Milano). Thirty minutes later, a blood sample ([…]) was withdrawn from the exposed jugular vein, peptides were injected intravenously or subcutaneously, and further blood samples were collected 10, 20 and 30 minutes later.
as §2, §3

GH release [5] = test: GH response in conscious, freely-moving rats after antiserum pretreatment, i.v. 25 μg/kg; format: in vivo; conditions: 25 μg/kg i.v.
Description: Sixty male rats were prepared with indwelling venous catheters under ether anesthesia three days before experimentation. On the day of experimentation, all animals were given an iv heparin injection (100 IU; 0630 h). At 0700 h, animals were treated with 0.5 ml of either normal serum (control-as), somatostatin antiserum (somatostatin-as; 0.25 ml+0.25 ml saline), growth hormone-releasing hormone antiserum (GHRH-as; 0.25 ml+0.25 ml saline), or both somatostatin antiserum and growth hormone-releasing hormone antiserum (0.25 ml somatostatin-as+0.25 ml GHRH-as). Blood sampling began 60 minutes after antiserum pretreatment, with blood samples collected every 20 minutes for three hours. After the 180 minute sample (1100 h), animals were treated iv with 25 μg/kg of either Hexarelin or GHRP-6. Blood samples were then collected at 5, 10, 15, 20, 30, 40, and 60 minutes after peptide treatment. All samples were centrifuged immediately and the plasma frozen until assayed. The peak GH response to Hexarelin and GHRP-6 as well as the area under the response curves (AUCs) for the thirty minutes following peptide injection were calculated. Data were subjected to repeated measures analysis of variance and are expressed as mean±SEM.

rat = test: Acute cardiovascular toxicity in the rat, single i.v. dose, mortality; format: in vivo; conditions: observed up to 4 hours
Description: These two peptides were also tested for acute cardiovascular toxicity in the rat.
Dosages were calculated on the basis of the declared peptide content in each product, as specified below:
A single dose of HEXARELIN or GHRP-6 was administered to rats in different calendar dates in such a way that each group/dose should be treated in two subsequent days.
For each compound, appropriate amounts of solutions in 0.9% NaCl for injection were prepared just before treatment at the suitable concentrations. The solutions were sterilized by filtration (Millipore filter, pore size 0.22 μm). Owing to the type of the study (acute study) in which formulates were administered just after preparation, stability checks were not performed. Concentration checks were also not performed. The volume of solution injected was maintained constant at 1 ml/Kg.
The intravenous injections were done as a single dose in one vein of the tail with an appropriately gauged sterile, disposable, plastic syringe. The injection rate was about 0.1 ml/sec.
Periodical observations were made up to 4 hours after treatment. Abnormality and mortality were recorded. Body weight was recorded once during pre-trial and on the administration day to calculate the volumes to be injected.

GH release [6] = test: Plasma GH after s.c. administration in male rats anesthetized with ketamine and xilazine; format: in vivo; conditions: 0 min (before injection)
Description: as §1, §4, §2, §3

[7] = 300 μg/kg s.c., GH control 10 to 31 ng/ml depending on experiment

For N[C@H](Cc1c[nH]c2ccccc12)C(=O)O [unsubstituted Trp, D-Tryptophan, reference compound], the “time stable in solution (HPLC peak area)” value [1] was “about 20 days”.
Molecule “D-Ala-D-Mrp-Ala-Trp-D-Phe-Lys-NH2 [D-Ala-D-Mrp--Ala--Trp-D-Phe--Lys--NH2]” has a GH released (GH release [2]; 40 μg/kg s.c., GH control 34 ± 1) of 200 ± 20 ng/mL, a GH released (GH release [2]; 320 μg/kg s.c., GH control 34 ± 1) of 251 ± 32 ng/mL and an EC50 (adenylcyclase) of 230 pM. The “adenylcyclase activity, increase compared with the baseline” value (adenylcyclase) was 30%.
In the case of C[C@H](NC(=O)[C@@H](Cc1c[nH]c2ccccc12)NC(=O)[C@@H](N)Cc1c[nH]cn1)C(=O)N[C@@H](Cc1c[nH]c2ccccc12)C(=O)N[C@H](Cc1ccccc1)C(=O)N[C@@H](CCCCN)C(N)=O [GHRP-6, His-D-Trp-Ala-Trp-D-Phe-Lys-NH2] (H-H[dW]AW[dF]K-NH2), the GH-releasing activity ([3]; 10^-6 M) is reported as 510.0 ± 12.0 ng/well, the GH-releasing activity ([3]; 10^-7 M) is reported as 526.5 ± 19.0 ng/well and the GH-releasing activity ([3]; 10^-8 M) is reported as 544.2 ± 23.9 ng/well. For the same molecule, the “plasma GH” value (GH release [4]; i.v. 150 μg/kg) was 30.2 ± 7.8 ng/mL, the “plasma GH” value (GH release [4]; i.v. 300 μg/kg) was 21.9 ± 4.4 ng/mL and the “plasma GH” value (GH release [4]; i.v. 600 μg/kg) was 21.2 ± 6.1 ng/mL. For the same molecule, the “Mean GH” value (GH release [5]; main peptide effect pooled over antiserum pretreatments) was 131 ± 13 ng/mL, the “Peak GH” value (GH release [5]; pooled over antiserum pretreatments) was 293 ± 41 ng/mL and the “GH AUC” value (GH release [5]; thirty minutes following injection, pooled over antiserum pretreatments) was 4220 ± 665 ng/ml/30 min. For the same molecule, the “adenylcyclase activity, increase compared with the baseline” value (adenylcyclase) was “inactive”, the “Dead rats/Total No of rats per group” value (rat; 2.5 mg/kg i.v. single dose) was 0/6 and the “Dead rats/Total No of rats per group” value (rat; 5.0 mg/kg i.v. single dose) was 1/6. The “Dead rats/Total No of rats per group” value (rat; 7.5 mg/kg i.v. single dose) was 2/6, the “plasma GH” value (GH release [6]; s.c. 150 μg/kg) was 20.0 ± 5.0 ng/mL and the “plasma GH” value (GH release [6]; s.c. 300 μg/kg) was 20.0 ± 6.0 ng/mL. The “plasma GH” value (GH release [6]; s.c. 600 μg/kg) was 18.0 ± 4.0 ng/mL.
With Cc1[nH]c2ccccc2c1C[C@@H](N)C(=O)O [substituted Trp, D-2-Methyl-Tryptophan] the “time stable in solution (HPLC peak area)” value [1] was ≥ 60 days.
With “4-(aminomethyl)cyclohexanecarbonyl-D-Mrp-D-Trp-Phe-Lys-NH^2” the GH released (GH release [2]; [7]) was 111.8 ± 24.6 ng/mL.
With “imidazolylacetyl-D-Mrp-Ala-Trp-D-Phe-Lys-NH2” the GH released (GH release [2]; [7]) was 159 ± 27 ng/mL.
